Active and inactive are the calls of the source. The rule behind the calls is not given here.
Key:
Pyruvate kinase PKM [1] = molecular target: T1, Pyruvate kinase PKM (Homo sapiens, UniProt P14618); test: Binding affinity to human PKM2 in HEK-293T by measuring pulldown using streptavidin agarose resin preincubated for 18 hrs followed by streptavidin pulldown for 18 hrs by silver staining based immunoblotting analysis; type: cell-based; conditions: time 36.0 hrs
Target sequence in this assay (P14618 2-531 limits assumed): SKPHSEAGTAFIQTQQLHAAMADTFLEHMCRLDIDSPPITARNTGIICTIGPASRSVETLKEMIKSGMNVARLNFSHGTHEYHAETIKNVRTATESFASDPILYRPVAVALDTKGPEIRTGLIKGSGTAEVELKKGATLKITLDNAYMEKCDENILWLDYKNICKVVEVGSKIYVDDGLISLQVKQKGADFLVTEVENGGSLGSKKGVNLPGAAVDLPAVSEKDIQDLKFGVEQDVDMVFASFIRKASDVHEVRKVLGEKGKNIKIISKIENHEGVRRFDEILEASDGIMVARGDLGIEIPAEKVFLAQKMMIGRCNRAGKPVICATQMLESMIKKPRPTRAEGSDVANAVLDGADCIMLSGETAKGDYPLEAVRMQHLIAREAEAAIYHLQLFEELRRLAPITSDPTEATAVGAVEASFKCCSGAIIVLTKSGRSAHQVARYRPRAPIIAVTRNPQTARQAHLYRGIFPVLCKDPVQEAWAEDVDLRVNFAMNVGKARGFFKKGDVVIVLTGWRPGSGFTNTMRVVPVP

Pyruvate kinase PKM [2] = molecular target: T1, Pyruvate kinase PKM; test: Binding affinity to human PKM1 in HEK-293T by measuring pulldown using streptavidin agarose resin preincubated for 18 hrs followed by streptavidin pulldown for 18 hrs by silver staining based immunoblotting analysis; type: cell-based; conditions: time 36.0 hrs
Target sequence in this assay (P14618 2-531 limits assumed): as above

Pyruvate kinase PKM [3] = molecular target: T1, Pyruvate kinase PKM; test: Binding affinity to PKM2 in human HeLa cells assessed as nuclear translocation at 0.5 uM measured for 24 hrs by DAPI staining based immunofluorescence analysis; type: cell-based
Target sequence in this assay (P14618 2-531 limits assumed): as above

Pyruvate kinase PKM [4] = molecular target: T1, Pyruvate kinase PKM; test: Inhibition of human PKM2 assessed as ATP production incubated for 10 mins in presence of beta-mercaptoethanol by Celltiter-glo luminescent analysis
Target sequence in this assay (P14618 whole entry): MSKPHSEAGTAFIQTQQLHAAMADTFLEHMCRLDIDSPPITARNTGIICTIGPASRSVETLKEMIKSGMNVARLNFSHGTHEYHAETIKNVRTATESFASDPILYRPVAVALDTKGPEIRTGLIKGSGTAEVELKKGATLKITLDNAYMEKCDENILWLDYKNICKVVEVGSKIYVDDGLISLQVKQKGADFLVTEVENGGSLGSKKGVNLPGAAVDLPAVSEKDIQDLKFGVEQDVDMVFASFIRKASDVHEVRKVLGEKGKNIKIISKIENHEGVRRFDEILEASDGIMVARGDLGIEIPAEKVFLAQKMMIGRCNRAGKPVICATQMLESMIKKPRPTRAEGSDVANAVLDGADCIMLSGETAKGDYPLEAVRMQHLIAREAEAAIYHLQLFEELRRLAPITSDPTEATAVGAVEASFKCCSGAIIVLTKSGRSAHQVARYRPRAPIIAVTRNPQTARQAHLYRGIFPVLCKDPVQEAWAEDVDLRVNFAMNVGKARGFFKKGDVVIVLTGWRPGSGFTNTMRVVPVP

Pyruvate kinase PKM [5] = molecular target: T1, Pyruvate kinase PKM; test: Inhibition of human PKM2 assessed as ATP production incubated for 10 mins by Celltiter-glo luminescent analysis
Target sequence in this assay (P14618 whole entry): as above

Pyruvate kinase PKM [6] = molecular target: T1, Pyruvate kinase PKM; test: Inhibition of PKM2 in human PA-1 cells assessed as reduction in c-MYC phosphorylation level at 3 uM incubated for 6 to 12 hrs by Western blotting analysis; type: cell-based; conditions: time 6-12 hrs
Target sequence in this assay (P14618 2-531 limits assumed): as the sequence (P14618 2-531 limits assumed) above

PA-1 [7] = test: Antiproliferative activity against human PKM2 knockdown PA-1 cells assessed as reduction in cell viability incubated after 96 hrs by Cell-TiterGlo assay; type: functional, cell-based
Pyruvate kinase PKM [8] = molecular target: T1, Pyruvate kinase PKM; test: Inhibition of PKM2 in human PA-1 cells assessed as reduction in cyclin D1 phosphorylation level at 3 uM incubated for 6 to 12 hrs by Western blotting analysis; type: cell-based; conditions: time 6-12 hrs
Target sequence in this assay (P14618 2-531 limits assumed): as above

Pyruvate kinase PKM [9] = molecular target: T1, Pyruvate kinase PKM; test: Binding affinity to wild type FLAG-tagged PKM2 in human PA-1 cells measured for 72 hrs; type: cell-based
Target sequence in this assay (P14618 whole entry): as the sequence (P14618 whole entry) above

SK-OV-3 [10] = test: Antiproliferative activity against human SK-OV-3 cells assessed as reduction in cell viability incubated for 72 hrs by Cell-TiterGlo assay; type: functional, cell-based; conditions: SK-OV-3, 72 h
Pyruvate kinase PKM [11] = molecular target: T1, Pyruvate kinase PKM; test: Inhibition of PKM2 in human PA-1 cells assessed as effect on ERK1/2 phosphorylation level at 3 uM incubated for 6 to 12 hrs by Western blotting analysis; type: cell-based; conditions: time 6-12 hrs
Target sequence in this assay (P14618 2-531 limits assumed): as the sequence (P14618 2-531 limits assumed) above

HEY [12] = test: Antitumor activity against human HEY cells xenografted in BALB/c nude mouse model assessed as reduction average tumor volume by measuring fold change at 50 mg/kg, po qd by caliper analysis; type: functional
Pyruvate kinase PKM [13] = molecular target: T1, Pyruvate kinase PKM; test: Inhibition of PKM2 in human PA-1 cells assessed as increase in extracellular acidification rate at 1 to 5 uM measured for 12 hrs by Seahorse XF96 extracellular flux analyzer; type: cell-based; conditions: dose 1-5 µM
[14] = Toxicity in BALB/c mouse assessed as change in body weight at 50 mg/kg, po qd measured after 2 weeks; type: organism-based; conditions: in vivo, 336 h
Pyruvate kinase PKM [15] = molecular target: T1, Pyruvate kinase PKM; test: Binding affinity to PKM2 in human SK-OV-3 cells assessed as thermal stabilization at 2 uM measured for 6 hrs by cellular thermal shift assay; type: cell-based
Pyruvate kinase PKM [16] = molecular target: T1, Pyruvate kinase PKM; test: Inhibition of PKM2 in human PA-1 cells assessed as effect on STAT3 phosphorylation level at 3 uM incubated for 6 to 12 hrs by Western blotting analysis; type: cell-based; conditions: time 6-12 hrs
PA-1 [17] = test: Antiproliferative activity against human PA-1 cells assessed as reduction in cell viability incubated for 72 hrs by Cell-TiterGlo assay; type: functional, cell-based; conditions: PA-1, 72 h
HEY [18] = test: Antitumor activity against human HEY cells xenografted in BALB/c nude mouse model assessed as reduction of tumor burden at 50 mg/kg, po qd; type: functional, organism-based
Pyruvate kinase PKM [19] = molecular target: T1, Pyruvate kinase PKM; test: Binding affinity to PKM2 in human PA-1 cells assessed as thermal stabilization at 2 uM measured for 6 hrs by cellular thermal shift assay; type: cell-based
Pyruvate kinase PKM [20] = molecular target: T1, Pyruvate kinase PKM; test: Inhibition of PKM2 in human PA-1 cells assessed as reduction in LDH level at 5 uM measured after 3 hrs by Western blot analysis; type: cell-based
Pyruvate kinase PKM [21] = molecular target: T1, Pyruvate kinase PKM; test: Inhibition of PKM2 in human PA-1 cells assessed as increase in ADP/ATP ratio at 5 uM measured for 12 hrs by LC-MS analysis; type: cell-based
SK-OV-3 [22] = test: Antiproliferative activity against human PKM2 knockdown SK-OV-3 cells assessed as reduction in cell viability incubated after 96 hrs by Cell-TiterGlo assay; type: functional, cell-based
[23] = Toxicity in BALB/c mouse assessed as adverse effects at 50 mg/kg, po qd measured after 2 weeks; type: organism-based; conditions: in vivo, 336 h
A2780 = test: Antiproliferative activity against human A2780 cells assessed as reduction in cell viability incubated for 72 hrs by Cell-TiterGlo assay; type: functional, cell-based; conditions: A2780, 72 h
Pyruvate kinase PKM [24] = molecular target: T1, Pyruvate kinase PKM; test: Inhibition of PKM2 in human SK-OV-3 cells assessed as decrease in extracellular acidification rate at 5 uM measured for 12 hrs by Seahorse XF96 extracellular flux analyzer; type: cell-based
Pyruvate kinase PKM [25] = molecular target: T1, Pyruvate kinase PKM; test: Inhibition of PKM2 in human PA-1 cells assessed as effect on AKT phosphorylation level at 3 uM incubated for 6 to 12 hrs by Western blotting analysis; type: cell-based; conditions: time 6-12 hrs
HEY [26] = test: Antitumor activity against human HEY cells xenografted in BALB/c nude mouse model assessed as reduction in total tumor weight by measuring fold change at 50 mg/kg, po qd; type: functional
Pyruvate kinase PKM [27] = molecular target: T1, Pyruvate kinase PKM; test: Inhibition of PKM2 in human PA-1 cells assessed as reduction pyruvate level at 5 uM measured for 12 hrs by LC-MS analysis; type: cell-based
SK-OV-3 [28] = test: Inhibition of PKM2 knockdown in human SK-OV-3 cells assessed as c-MYC phosphorylation level at 3 uM incubated for 6 to 12 hrs by Western blotting analysis; type: functional, cell-based; conditions: time 6-12 hrs
Pyruvate kinase PKM [29] = molecular target: Pyruvate kinase PKM (Homo sapiens, UniProt P14618, C474S); test: Binding affinity to PKM2 C474S mutant in human PA-1 cells measured for 72 hrs; type: cell-based
SK-OV-3 [30] = test: Inhibition of PKM2 knockdown in human SK-OV-3 cells assessed as AMPK phosphorylation level at 3 uM incubated for 6 to 12 hrs by Western blotting analysis; type: functional, cell-based; conditions: time 6-12 hrs
Pyruvate kinase PKM [31] = molecular target: Pyruvate kinase PKM (Homo sapiens, UniProt P14618, C474A); test: Binding affinity to PKM2 C474A mutant in human PA-1 cells measured for 72 hrs; type: cell-based
Pyruvate kinase PKM [32] = molecular target: T1, Pyruvate kinase PKM; test: Binding affinity to PKM2 in human SK-OV-3 cells at 10 uM pretreated for 6 hrs followed by pulldown using streptavidin agarose resin by Western blot analysis; type: cell-based
Pyruvate kinase PKM [33] = molecular target: T1, Pyruvate kinase PKM; test: Binding affinity to PKM2 in human PA-1 cells at 10 uM pretreated for 6 hrs followed by pulldown using streptavidin agarose resin by Western blot analysis; type: cell-based
Pyruvate kinase PKM [34] = molecular target: T1, Pyruvate kinase PKM; test: Binding affinity to PKM2 in human PA-1 cells assessed as target engagement of protein at 10 uM silver staining based […] gel electrophoresis analysis; type: cell-based
Pyruvate kinase PKM [35] = molecular target: T1, Pyruvate kinase PKM; test: Inhibition of human PKM1 assessed as ATP production incubated for 10 mins by Celltiter-glo luminescent analysis
Target sequence in this assay (P14618 whole entry): as the sequence (P14618 whole entry) above

Pyruvate kinase PKM (Homo sapiens, UniProt P14618, C474S), sequence (P14618 2-531 C474S limits assumed): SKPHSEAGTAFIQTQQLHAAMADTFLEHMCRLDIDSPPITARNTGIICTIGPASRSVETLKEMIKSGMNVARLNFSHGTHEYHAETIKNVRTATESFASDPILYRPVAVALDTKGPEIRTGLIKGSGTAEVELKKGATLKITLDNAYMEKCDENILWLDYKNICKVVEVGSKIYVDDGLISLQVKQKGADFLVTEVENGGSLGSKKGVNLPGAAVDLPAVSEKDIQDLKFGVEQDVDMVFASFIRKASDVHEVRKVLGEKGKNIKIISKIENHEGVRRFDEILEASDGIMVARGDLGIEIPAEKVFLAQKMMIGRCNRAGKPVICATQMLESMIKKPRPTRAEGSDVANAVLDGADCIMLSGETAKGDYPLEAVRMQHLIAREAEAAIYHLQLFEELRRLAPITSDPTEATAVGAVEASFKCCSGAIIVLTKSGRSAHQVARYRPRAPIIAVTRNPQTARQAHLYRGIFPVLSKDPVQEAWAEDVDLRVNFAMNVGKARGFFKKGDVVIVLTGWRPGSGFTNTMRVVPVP
Pyruvate kinase PKM (Homo sapiens, UniProt P14618, C474A), sequence (P14618 2-531 C474A limits assumed): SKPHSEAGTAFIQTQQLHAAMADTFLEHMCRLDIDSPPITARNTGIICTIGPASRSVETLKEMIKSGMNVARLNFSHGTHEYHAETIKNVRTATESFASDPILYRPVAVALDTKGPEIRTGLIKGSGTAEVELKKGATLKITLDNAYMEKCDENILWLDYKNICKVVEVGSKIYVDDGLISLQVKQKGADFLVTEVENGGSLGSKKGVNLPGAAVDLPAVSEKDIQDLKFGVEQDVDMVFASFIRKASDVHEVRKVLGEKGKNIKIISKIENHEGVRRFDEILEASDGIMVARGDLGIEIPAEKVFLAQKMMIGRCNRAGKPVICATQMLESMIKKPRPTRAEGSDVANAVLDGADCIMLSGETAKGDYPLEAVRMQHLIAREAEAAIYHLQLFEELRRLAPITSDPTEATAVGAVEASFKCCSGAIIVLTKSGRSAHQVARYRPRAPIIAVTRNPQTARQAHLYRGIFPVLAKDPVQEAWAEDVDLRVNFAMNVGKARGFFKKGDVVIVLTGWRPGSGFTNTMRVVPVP

O=C(CCCC[C@H]1SC[C@H]2NC(=O)N[C@H]21)NCCOCCOCCOCCN1CCC(CN(C(=O)[C@@H]2CCN(Cc3ccccc3)C2)c2ccc([As](O)O)cc2)CC1
Activity (Pyruvate kinase PKM [1]): Active | Activity (Pyruvate kinase PKM [2]): inactive

CC1=CC(C)=[N+]2C1=C(CCCC(=O)N1CCC(CN(C(=O)[C@@H]3CCN(Cc4ccccc4)C3)c3ccc([As]4SCCS4)cc3)CC1)c1c(C)cc(C)n1[B-]2(F)F
Activity (Pyruvate kinase PKM [3]): Active

CCN1CCC(CN(C(=O)[C@H]2CCN(Cc3ccccc3)C2)c2ccc([As](O)O)cc2)CC1
IC50 (Pyruvate kinase PKM [4]): 2140 nM | IC50 (Pyruvate kinase PKM [5]): 671 nM

CCN1CCC(CN(C(=O)[C@@H]2CCN(Cc3ccccc3)C2)c2ccc([As]3SCCS3)cc2)CC1
inhibition (Pyruvate kinase PKM [6]): Active | Activity (PA-1 [7]): inactive | inhibition (Pyruvate kinase PKM [8]): Active | IC50 (Pyruvate kinase PKM [9]): 16 nM | IC50 (Pyruvate kinase PKM [4]): > 10000 nM | IC50 (SK-OV-3 [10]): > 10000 nM | inhibition (Pyruvate kinase PKM [11]): inactive | fold change (FC) (HEY [12]): 2 | inhibition (Pyruvate kinase PKM [13]): inactive | Activity [14]: Non-Toxic | Activity (Pyruvate kinase PKM [15]): inactive | inhibition (Pyruvate kinase PKM [16]): inactive | IC50 (PA-1 [17]): 160 nM | Activity (HEY [18]): Active | Activity (Pyruvate kinase PKM [19]): inactive | inhibition (Pyruvate kinase PKM [20]): inactive | inhibition (Pyruvate kinase PKM [21]): Active | Activity (SK-OV-3 [22]): Active | Activity [23]: Non-Toxic | IC50 (A2780): 230 nM | inhibition (Pyruvate kinase PKM [24]): Active | inhibition (Pyruvate kinase PKM [25]): inactive | fold change (FC) (HEY [26]): >3 | inhibition (Pyruvate kinase PKM [27]): Active | inhibition (SK-OV-3 [28]): inactive | IC50 (Pyruvate kinase PKM [29]): 93 nM | inhibition (SK-OV-3 [30]): Active | IC50 (Pyruvate kinase PKM [31]): 129 nM | IC50 (Pyruvate kinase PKM [5]): > 10000 nM

O=C(CCCC[C@H]1SC[C@H]2NC(=O)N[C@H]21)NCCOCCOCCOCCN1CCC(CN(C(=O)[C@@H]2CCN(Cc3ccccc3)C2)c2ccc([As]3SCCS3)cc2)CC1
Activity (Pyruvate kinase PKM [2]): inactive | Activity (Pyruvate kinase PKM [32]): inactive | Activity (Pyruvate kinase PKM [33]): inactive

CN1CC[C@@H](C(=O)Nc2ccc([As](O)O)cc2)C1
IC50 (Pyruvate kinase PKM [4]): 586 nM | IC50 (SK-OV-3 [10]): 280 nM | IC50 (PA-1 [17]): 480 nM | IC50 (A2780): 340 nM | IC50 (Pyruvate kinase PKM [5]): 139 nM

COc1ccc([As](O)O)cc1NC(=O)COCCOCCOCCOCCNC(=O)CCCC[C@H]1SC[C@H]2NC(=O)N[C@H]21
IC50 (Pyruvate kinase PKM [4]): 1280 nM | IC50 (Pyruvate kinase PKM [5]): 999 nM

CCN1CCC(CN(C(=O)[C@@H]2CCN(Cc3ccccc3)C2)c2ccc([As](O)O)cc2)CC1
IC50 (Pyruvate kinase PKM [4]): 250 nM | IC50 (SK-OV-3 [10]): > 10000 nM | IC50 (PA-1 [17]): > 10000 nM | Activity (Pyruvate kinase PKM [32]): Active | IC50 (A2780): > 10000 nM | Activity (Pyruvate kinase PKM [33]): Active | IC50 (Pyruvate kinase PKM [5]): 122 nM

CN1CC[C@@H](C(=O)N(Cc2ccccc2)c2ccc([As](O)O)cc2)C1
IC50 (Pyruvate kinase PKM [4]): 1790 nM | IC50 (Pyruvate kinase PKM [5]): 285 nM

CCN1CCC(CN(C(=O)[C@H]2CCN(Cc3ccccc3)C2)c2ccc([As]3SCCS3)cc2)CC1
IC50 (SK-OV-3 [10]): 130 nM | IC50 (PA-1 [17]): 100 nM | IC50 (A2780): 110 nM

O=C(CCCC[C@H]1SC[C@H]2NC(=O)N[C@H]21)NCCOCCOCCOCCOCC(=O)Nc1ccc(B(O)O)cc1
IC50 (Pyruvate kinase PKM [4]): > 10000 nM | IC50 (Pyruvate kinase PKM [5]): > 10000 nM

O=C(CCCC[C@H]1SC[C@H]2NC(=O)N[C@H]21)NCCOCCOCCOCCOCC(=O)Nc1ccc([As](O)O)cc1
IC50 (Pyruvate kinase PKM [4]): 1030 nM | Activity (Pyruvate kinase PKM [34]): Active | IC50 (Pyruvate kinase PKM [5]): 230 nM

CCN1CCC(CN(C(=O)[C@@H]2CCN(Cc3ccccc3)C2)c2ccc(B(O)O)cc2)CC1
IC50 (Pyruvate kinase PKM [4]): > 10000 nM | IC50 (SK-OV-3 [10]): > 10000 nM | IC50 (PA-1 [17]): > 10000 nM | IC50 (A2780): > 10000 nM | IC50 (Pyruvate kinase PKM [5]): > 10000 nM

CC(C)=CC[C@@H](O)C1=CC(=O)c2c(O)ccc(O)c2C1=O [SHIKONIN]
IC50 (Pyruvate kinase PKM [9]): 301 nM | IC50 (Pyruvate kinase PKM [4]): > 10000 nM | IC50 (SK-OV-3 [10]): 3460 nM | Activity (Pyruvate kinase PKM [15]): inactive | IC50 (Pyruvate kinase PKM [35]): 1520 nM | IC50 (PA-1 [17]): 920 nM | Activity (Pyruvate kinase PKM [32]): Active | Activity (Pyruvate kinase PKM [19]): inactive | IC50 (A2780): 390 nM | Activity (Pyruvate kinase PKM [33]): Active | IC50 (Pyruvate kinase PKM [29]): 326 nM | IC50 (Pyruvate kinase PKM [31]): 381 nM | IC50 (Pyruvate kinase PKM [5]): 2580 nM

O=C(CCCC[C@H]1SC[C@H]2NC(=O)N[C@H]21)NCCOCCOCCOCCOCC(=O)Nc1ccc([As]2SCCS2)cc1
Activity (Pyruvate kinase PKM [34]): inactive

O=C([C@@H]1CCN(Cc2ccccc2)C1)N(Cc1ccccc1)c1ccc([As](O)O)cc1
IC50 (Pyruvate kinase PKM [4]): 1490 nM | IC50 (Pyruvate kinase PKM [5]): 326 nM

Source: ChEMBL document CHEMBL5380786, “Selective Covalent Targeting of Pyruvate Kinase M2 Using Arsenous Warheads” (J Med Chem, 2023)
